Measurements published in BindingDB's records for doi:10.1016/s0028-3908(05)80009-7 (Universit&Eacute, 1994).
Where a SMILES comes first, the peptide text is derived from it. [ ]: non-standard residue; d: D form. ξ: configuration not given here. Ile(3ξ) = CCC(C)[C@H](N)C(=O)O

target: T1, Pituitary adenylate cyclase-activating polypeptide (Rattus norvegicus, UniProt P13589)
T1 sequence (P13589 whole entry): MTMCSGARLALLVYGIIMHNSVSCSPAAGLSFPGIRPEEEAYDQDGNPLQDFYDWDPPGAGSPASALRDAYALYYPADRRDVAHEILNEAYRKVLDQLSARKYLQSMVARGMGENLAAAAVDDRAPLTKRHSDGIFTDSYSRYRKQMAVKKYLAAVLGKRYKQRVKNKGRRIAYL

| Compound | Ki |
| --- | --- |
| CCC(C)[C@H](NC(=O)CNC(=O)[C@H](CC(=O)O)NC(=O)[C@@H](Cc1ccccc1)NC(=O)[C@@H](N)Cc1cnc[nH]1)C(=O)N[C@@H](Cc1ccccc1)C(=O)N[C@H](C(=O)N[C@@H](CC(=O)O)C(=O)N[C@@H](CO)C(=O)N[C@@H](Cc1ccc(O)cc1)C(=O)N[C@@H](CO)C(=O)N[C@@H](CCCN=C(N)N)C(=O)N[C@@H](Cc1ccc(O)cc1)C(=O)N[C@@H](CCCN=C(N)N)C(=O)N[C@@H](CCCCN)C(=O)N[C@@H](CCC(N)=O)C(=O)N[C@@H](CCSC)C(=O)N[C@@H](C)C(=O)N[C@H](C(=O)N[C@@H](CCCCN)C(=O)N[C@@H](CCCCN)C(=O)N[C@@H](Cc1ccc(O)cc1)C(=O)N[C@@H](CC(C)C)C(=O)N[C@@H](C)C(=O)N[C@@H](C)C(=O)N[C@H](C(=O)N[C@@H](CC(C)C)C(N)=O)C(C)C)C(C)C)[C@@H](C)O (stereo partly drawn) [[D-Phe2]PACAP-27] | 800 nM |
| CCC(C)[C@H](NC(=O)CNC(=O)[C@H](CC(=O)O)NC(=O)[C@H](Cc1ccccc1)NC(=O)[C@@H](N)Cc1cnc[nH]1)C(=O)N[C@@H](Cc1ccccc1)C(=O)N[C@H](C(=O)N[C@@H](CC(=O)O)C(=O)N[C@@H](CO)C(=O)N[C@@H](Cc1ccc(O)cc1)C(=O)N[C@@H](CO)C(=O)N[C@@H](CCCN=C(N)N)C(=O)N[C@@H](Cc1ccc(O)cc1)C(=O)N[C@@H](CCCN=C(N)N)C(=O)N[C@@H](CCCCN)C(=O)N[C@@H](CCC(N)=O)C(=O)N[C@@H](CCSC)C(=O)N[C@@H](C)C(=O)N[C@H](C(=O)N[C@@H](CCCCN)C(=O)N[C@@H](CCCCN)C(=O)N[C@@H](Cc1ccc(O)cc1)C(=O)N[C@@H](CC(C)C)C(=O)N[C@@H](C)C(=O)N[C@@H](C)C(=O)N[C@H](C(=O)N[C@@H](CC(C)C)C(N)=O)C(C)C)C(C)C)[C@@H](C)O (stereo not given in full) [[Phe2]PACAP(1-27)] | 60 nM |
| H-FTDSYSRYRKQMAVKKYLAAVL-NH2 [PACAP(5-27)] | 1000 nM |
| CCC(C)[C@H](N)C(=O)N[C@@H](Cc1ccccc1)C(=O)N[C@H](C(=O)N[C@@H](CC(=O)O)C(=O)N[C@@H](CO)C(=O)N[C@@H](Cc1ccc(O)cc1)C(=O)N[C@@H](CO)C(=O)N[C@@H](CCCN=C(N)N)C(=O)N[C@@H](Cc1ccc(O)cc1)C(=O)N[C@@H](CCCN=C(N)N)C(=O)N[C@@H](CCCCN)C(=O)N[C@@H](CCC(N)=O)C(=O)N[C@@H](CCSC)C(=O)N[C@@H](C)C(=O)N[C@H](C(=O)N[C@@H](CCCCN)C(=O)N[C@@H](CCCCN)C(=O)N[C@@H](Cc1ccc(O)cc1)C(=O)N[C@@H](CC(C)C)C(=O)N[C@@H](C)C(=O)N[C@@H](C)C(=O)N[C@H](C(=O)N[C@@H](CC(C)C)C(N)=O)C(C)C)C(C)C)[C@@H](C)O (stereo not given in full) [PACAP(5-27)] (H-[Ile(3ξ)]FTDSYSRYRKQMAVKKYLAAVL-NH2) | 1000 nM |
| CC[C@H](C)[C@H](NC(=O)CNC(=O)[C@H](CC(=O)O)NC(=O)[C@H](CO)NC(=O)[C@H](Cc1cnc[nH]1)NC(C)=O)C(=O)N[C@@H](Cc1ccccc1)C(=O)N[C@H](C(=O)N[C@@H](CC(=O)O)C(=O)N[C@@H](CO)C(=O)N[C@@H](Cc1ccc(O)cc1)C(=O)N[C@@H](CO)C(=O)N[C@@H](CCCNC(=N)N)C(=O)N[C@@H](Cc1ccc(O)cc1)C(=O)N[C@@H](CCCNC(=N)N)C(=O)N[C@@H](CCCCN)C(=O)N[C@@H](CCC(N)=O)C(=O)N[C@@H](CCSC)C(=O)N[C@@H](C)C(=O)N[C@H](C(=O)N[C@@H](CCCCN)C(=O)N[C@@H](CCCCN)C(=O)N[C@@H](Cc1ccc(O)cc1)C(=O)N[C@@H](CC(C)C)C(=O)N[C@@H](C)C(=O)N[C@@H](C)C(=O)N[C@H](C(=O)N[C@@H](CC(C)C)C(N)=O)C(C)C)C(C)C)[C@@H](C)O [[AcHis1]PACAP(1-27)] | 1 nM |
| H-SYSRYRKQMAVKKYLAAVL-NH2 [PACAP(9-27)] | 2000 nM |
| H-SRYRKQMAVKKYLAAVL-NH2 [PACAP(11-27)] | 6000 nM |
| CC[C@H](C)[C@H](NC(=O)CNC(=O)[C@H](CC(=O)O)NC(=O)[C@@H](C)NC(=O)[C@@H](N)Cc1cnc[nH]1)C(=O)N[C@@H](Cc1ccccc1)C(=O)N[C@H](C(=O)N[C@@H](CC(=O)O)C(=O)N[C@@H](CO)C(=O)N[C@@H](Cc1ccc(O)cc1)C(=O)N[C@@H](CO)C(=O)N[C@@H](CCCN=C(N)N)C(=O)N[C@@H](Cc1ccc(O)cc1)C(=O)N[C@@H](CCCN=C(N)N)C(=O)N[C@@H](CCCCN)C(=O)N[C@@H](CCC(N)=O)C(=O)N[C@@H](CCSC)C(=O)N[C@@H](C)C(=O)N[C@H](C(=O)N[C@@H](CCCCN)C(=O)N[C@@H](CCCCN)C(=O)N[C@@H](Cc1ccc(O)cc1)C(=O)N[C@@H](CC(C)C)C(=O)N[C@@H](C)C(=O)N[C@@H](C)C(=O)N[C@H](C(=O)N[C@@H](CC(C)C)C(N)=O)C(C)C)C(C)C)[C@@H](C)O [[DAla2]PACAP(1-27)] | 8 nM |
| CC[C@H](C)[C@H](NC(=O)CNC(=O)[C@H](CC(=O)O)NC(=O)[C@H](C)NC(=O)[C@@H](N)Cc1cnc[nH]1)C(=O)N[C@@H](Cc1ccccc1)C(=O)N[C@H](C(=O)N[C@@H](CC(=O)O)C(=O)N[C@@H](CO)C(=O)N[C@@H](Cc1ccc(O)cc1)C(=O)N[C@@H](CO)C(=O)N[C@@H](CCCNC(=N)N)C(=O)N[C@@H](Cc1ccc(O)cc1)C(=O)N[C@@H](CCCNC(=N)N)C(=O)N[C@@H](CCCCN)C(=O)N[C@@H](CCC(N)=O)C(=O)N[C@@H](CCSC)C(=O)N[C@@H](C)C(=O)N[C@H](C(=O)N[C@@H](CCCCN)C(=O)N[C@@H](CCCCN)C(=O)N[C@@H](Cc1ccc(O)cc1)C(=O)N[C@@H](CC(C)C)C(=O)N[C@@H](C)C(=O)N[C@@H](C)C(=O)N[C@H](C(=O)N[C@@H](CC(C)C)C(N)=O)C(C)C)C(C)C)[C@@H](C)O [[Ala2]PACAP(1-27)] | 0.3 nM |
| CCC(C)[C@H](NC(=O)CNC(=O)[C@@H](N)CC(=O)O)C(=O)N[C@@H](Cc1ccccc1)C(=O)N[C@H](C(=O)N[C@@H](CC(=O)O)C(=O)N[C@@H](CO)C(=O)N[C@@H](Cc1ccc(O)cc1)C(=O)N[C@@H](CO)C(=O)N[C@@H](CCCN=C(N)N)C(=O)N[C@@H](Cc1ccc(O)cc1)C(=O)N[C@@H](CCCN=C(N)N)C(=O)N[C@@H](CCCCN)C(=O)N[C@@H](CCC(N)=O)C(=O)N[C@@H](CCSC)C(=O)N[C@@H](C)C(=O)N[C@H](C(=O)N[C@@H](CCCCN)C(=O)N[C@@H](CCCCN)C(=O)N[C@@H](Cc1ccc(O)cc1)C(=O)N[C@@H](CC(C)C)C(=O)N[C@@H](C)C(=O)N[C@@H](C)C(=O)N[C@H](C(=O)N[C@@H](CC(C)C)C(=O)NCC(=O)N[C@@H](CCCCN)C(=O)N[C@@H](CCCN=C(N)N)C(=O)N[C@@H](Cc1ccc(O)cc1)C(=O)N[C@@H](CCCCN)C(=O)N[C@@H](CCC(N)=O)C(=O)N[C@@H](CCCN=C(N)N)C(=O)N[C@H](C(=O)N[C@@H](CCCCN)C(=O)N[C@@H](CC(N)=O)C(=O)N[C@@H](CCCCN)C(N)=O)C(C)C)C(C)C)C(C)C)[C@@H](C)O (stereo not given in full) [PACAP(3-38)] (H-DG[Ile(3ξ)]FTDSYSRYRKQMAVKKYLAAVLGKRYKQRVKNK-NH2) | 10 nM |
